According to patent US11019818B2, “Herbicidal 3-substituted lactams” (FMC Corporation, priority 2017, dated 2021):

Columns and labels:
Assay type in all cases: in vivo
[1] = tested on: foxtail, green (green foxtail, Setaria viridis); assay: Test A postemergence, green foxtail; conditions: 0 to 100 scale (0 no effect, 100 complete control), approx. 10 d
Source text: (§1) Seeds of plant species selected from barnyardgrass (Echinochloa crus-galli), kochia (Kochia scoparia), ragweed (common ragweed, Ambrosia elatior), ryegrass, Italian (Italian ryegrass, Lolium multiflorum), foxtail, green (green foxtail, Setaria viridis), and pigweed (Amaranthus retroflexus) were planted into a blend of loam soil and sand and treated preemergence with a directed soil spray using test chemicals formulated in a non-phytotoxic solvent mixture which included a surfactant. At the same time, plants selected from these weed species and also wheat (Triticum aestivum), corn (Zea mays), blackgrass (Alopecurus myosuroides), and galium (catchweed bedstraw, Galium aparine) were planted in pots containing the same blend of loam soil and sand and treated with postemergence applications of test chemicals formulated in the same manner. Plants ranged in height from 2 to 10 cm and were in the one- to two-leaf stage for the postemergence treatment. Treated plants and untreated controls were maintained in a greenhouse for approximately 10 d, after which time all treated plants were compared to untreated controls and visually evaluated for injury. Plant response ratings, summarized in Table A, are based on a 0 to 100 scale where 0 is no effect and 100 is complete control. A dash (-) response means no test result.

[2] = tested on: barnyardgrass (Echinochloa crus-galli); assay: Test B flooded paddy test, barnyardgrass; conditions: Flood, 250 g ai/ha; applied to paddy water at 2-leaf stage; visual rating after 13 to 15 d; scale 0 to 100, 0 is no effect, 100 is complete control
Protocol: (§2) Plant species in the flooded paddy test selected from rice (Oryza sativa), sedge, umbrella (small-flower umbrella sedge, Cyperus difformis), ducksalad (Heteranthera limosa), and barnyardgrass (Echinochloa crus-galli) were grown to the 2-leaf stage for testing. At time of treatment, test pots were flooded to 3 cm above the soil surface, treated by application of test compounds directly to the paddy water, and then maintained at that water depth for the duration of the test. Treated plants and controls were maintained in a greenhouse for 13 to 15 d, after which time all species were compared to controls and visually evaluated. Plant response ratings, summarized in Table B, are based on a scale of 0 to 100 where 0 is no effect and 100 is complete control. A dash (-) response means no test result.

[3] = tested on: ryegrass, Italian (Italian ryegrass, Lolium multiflorum); assay: Test A postemergence, Italian ryegrass; conditions: 0 to 100 scale (0 no effect, 100 complete control), approx. 10 d
Source text: as §1

[4] = tested on: pigweed (Amaranthus retroflexus); assay: Test A preemergence, pigweed; conditions: 0 to 100 scale (0 no effect, 100 complete control), approx. 10 d
Source text: as §1

[5] = tested on: blackgrass (Alopecurus myosuroides); assay: Test A postemergence, blackgrass; conditions: 0 to 100 scale (0 no effect, 100 complete control), approx. 10 d
Source text: as §1

[6] = tested on: ragweed (common ragweed, Ambrosia elatior); assay: Test A preemergence, ragweed; conditions: 0 to 100 scale (0 no effect, 100 complete control), approx. 10 d
Source text: as §1

[7] = tested on: wheat (Triticum aestivum); assay: Test A postemergence, wheat; conditions: 0 to 100 scale (0 no effect, 100 complete control), approx. 10 d
Source text: as §1

rice (Oryza sativa) = assay: Test B flooded paddy test, rice; conditions: Flood, 250 g ai/ha; applied to paddy water at 2-leaf stage; visual rating after 13 to 15 d; scale 0 to 100, 0 is no effect, 100 is complete control
Protocol: as §2

corn (Zea mays) = assay: Test A postemergence, corn; conditions: 0 to 100 scale (0 no effect, 100 complete control), approx. 10 d
Source text: as §1

kochia (Kochia scoparia) [8] = assay: Test A preemergence, kochia; conditions: 0 to 100 scale (0 no effect, 100 complete control), approx. 10 d
Source text: as §1

kochia (Kochia scoparia) [9] = assay: Test A postemergence, kochia; conditions: 0 to 100 scale (0 no effect, 100 complete control), approx. 10 d
Source text: as §1

[10] = tested on: ryegrass, Italian (Italian ryegrass, Lolium multiflorum); assay: Test A preemergence, Italian ryegrass; conditions: 0 to 100 scale (0 no effect, 100 complete control), approx. 10 d
Source text: as §1

[11] = tested on: pigweed (Amaranthus retroflexus); assay: Test A postemergence, pigweed; conditions: 0 to 100 scale (0 no effect, 100 complete control), approx. 10 d
Source text: as §1

[12] = tested on: ragweed (common ragweed, Ambrosia elatior); assay: Test A postemergence, ragweed; conditions: 0 to 100 scale (0 no effect, 100 complete control), approx. 10 d
Source text: as §1

[13] = tested on: foxtail, green (green foxtail, Setaria viridis); assay: Test A preemergence, green foxtail; conditions: 0 to 100 scale (0 no effect, 100 complete control), approx. 10 d
Source text: as §1

[14] = tested on: sedge, umbrella (small-flower umbrella sedge, Cyperus difformis); assay: Test B flooded paddy test, umbrella sedge; conditions: Flood, 250 g ai/ha; applied to paddy water at 2-leaf stage; visual rating after 13 to 15 d; scale 0 to 100, 0 is no effect, 100 is complete control
Protocol: as §2

[15] = tested on: ducksalad (Heteranthera limosa); assay: Test B flooded paddy test, ducksalad; conditions: Flood, 250 g ai/ha; applied to paddy water at 2-leaf stage; visual rating after 13 to 15 d; scale 0 to 100, 0 is no effect, 100 is complete control
Protocol: as §2

[16] = tested on: galium (catchweed bedstraw, Galium aparine); assay: Test A postemergence, galium; conditions: 0 to 100 scale (0 no effect, 100 complete control), approx. 10 d
Source text: as §1

[17] = tested on: barnyardgrass (Echinochloa crus-galli); assay: Test A preemergence, barnyardgrass; conditions: 0 to 100 scale (0 no effect, 100 complete control), approx. 10 d
Source text: as §1

[18] = tested on: barnyardgrass (Echinochloa crus-galli); assay: Test A postemergence, barnyardgrass; conditions: 0 to 100 scale (0 no effect, 100 complete control), approx. 10 d
Source text: as §1

Row | Compound | Plant response rating, Foxtail, Green ([1]; 31 g ai/ha) | Plant response rating, Foxtail, Green ([1]; 125 g ai/ha) | Plant response rating, Barnyardgrass [2] | Plant response rating, Ryegrass, Italian ([3]; 31 g ai/ha) | Plant response rating, Ryegrass, Italian ([3]; 125 g ai/ha) | Plant response rating, Pigweed ([4]; 31 g ai/ha) | Plant response rating, Pigweed ([4]; 125 g ai/ha) | Plant response rating, Blackgrass ([5]; 31 g ai/ha) | Plant response rating, Blackgrass ([5]; 125 g ai/ha) | Plant response rating, Ragweed ([6]; 31 g ai/ha) | Plant response rating, Ragweed ([6]; 125 g ai/ha) | Plant response rating, Wheat ([7]; 31 g ai/ha) | Plant response rating, Wheat ([7]; 125 g ai/ha) | Plant response rating, Rice (rice (Oryza sativa)) | Plant response rating, Corn (corn (Zea mays); 31 g ai/ha) | Plant response rating, Corn (corn (Zea mays); 125 g ai/ha) | Plant response rating, Kochia (kochia (Kochia scoparia) [8]; 31 g ai/ha) | Plant response rating, Kochia (kochia (Kochia scoparia) [8]; 125 g ai/ha) | Plant response rating, Kochia (kochia (Kochia scoparia) [9]; 31 g ai/ha) | Plant response rating, Kochia (kochia (Kochia scoparia) [9]; 125 g ai/ha) | other results
1 | CCNC(=O)C1(C(=O)Nc2cccc(F)c2F)C(=O)N(C)CC1c1ccc(C(F)(F)F)cc1 (stereo not drawn) [Compound 7] | 0 | 20 | 0 | 0 | 10 | 0 | 10 | 0 | 0 | 0 | 0 | 0 | 0 | 30 | 0 | 0 | 0 | 0 | 0 | 0 | Plant response rating, Ryegrass, Italian ([10]; 31 g ai/ha): 0; Plant response rating, Ryegrass, Italian ([10]; 125 g ai/ha): 0; Plant response rating, Pigweed ([11]; 31 g ai/ha): 10; Plant response rating, Pigweed ([11]; 125 g ai/ha): 30; Plant response rating, Ragweed ([12]; 31 g ai/ha): 0; Plant response rating, Ragweed ([12]; 125 g ai/ha): 0; Plant response rating, Foxtail, Green ([13]; 31 g ai/ha): 0; Plant response rating, Foxtail, Green ([13]; 125 g ai/ha): 80; Plant response rating, Sedge, Umbrella [14]: 0; Plant response rating, Ducksalad [15]: 75; Plant response rating, Galium ([16]; 31 g ai/ha): 0; Plant response rating, Galium ([16]; 125 g ai/ha): 30; Plant response rating, Barnyardgrass ([17]; 31 g ai/ha): 0; Plant response rating, Barnyardgrass ([17]; 125 g ai/ha): 70; Plant response rating, Barnyardgrass ([18]; 31 g ai/ha): 0; Plant response rating, Barnyardgrass ([18]; 125 g ai/ha): 10
2 | CN1C[C@H](c2ccc(C(F)(F)F)cc2)[C@](CO)(C(=O)Nc2cccc(F)c2F)C1=O [Compound 4, (3S,4R)—N-(2,3-difluorophenyl)-3-(hydroxymethyl)-1-methyl-2-oxo-4-[4-(trifluoromethyl)phenyl]-3-pyrrolidinecarboxamide] | 10 | 60 | 50 | 0 | 50 | 0 | 90 | 0 | 40 | 0 | 0 | 0 | 20 | 0 | 0 | 50 | 0 | 40 | 0 | 60 | Plant response rating, Ryegrass, Italian ([10]; 31 g ai/ha): 0; Plant response rating, Ryegrass, Italian ([10]; 125 g ai/ha): 50; Plant response rating, Pigweed ([11]; 31 g ai/ha): 30; Plant response rating, Pigweed ([11]; 125 g ai/ha): 70; Plant response rating, Ragweed ([12]; 31 g ai/ha): 0; Plant response rating, Ragweed ([12]; 125 g ai/ha): 0; Plant response rating, Foxtail, Green ([13]; 31 g ai/ha): 50; Plant response rating, Foxtail, Green ([13]; 125 g ai/ha): 90; Plant response rating, Sedge, Umbrella [14]: 0; Plant response rating, Ducksalad [15]: 95; Plant response rating, Galium ([16]; 31 g ai/ha): 20; Plant response rating, Galium ([16]; 125 g ai/ha): 40; Plant response rating, Barnyardgrass ([17]; 31 g ai/ha): 30; Plant response rating, Barnyardgrass ([17]; 125 g ai/ha): 90; Plant response rating, Barnyardgrass ([18]; 31 g ai/ha): 0; Plant response rating, Barnyardgrass ([18]; 125 g ai/ha): 60
3 | CC(=O)[C@@]1(C(=O)Nc2cccc(F)c2F)C(=O)N(C)C[C@@H]1c1ccc(C(F)(F)F)cc1 [Compound 1, (3S,4R)-3-acetyl-N-(2,3-difluorophenyl)-1-methyl-2-oxo-4-[4-(trifluoromethyl)phenyl]-3-pyrrolidinecarboxamide] | 50 | 90 | 70 | 60 | 80 | 50 | 90 | 0 | 50 | 20 | 70 | 20 | 50 | 0 | 20 | 80 | 40 | 80 | 20 | 70 | Plant response rating, Ryegrass, Italian ([10]; 31 g ai/ha): 30; Plant response rating, Ryegrass, Italian ([10]; 125 g ai/ha): 60; Plant response rating, Pigweed ([11]; 31 g ai/ha): 30; Plant response rating, Pigweed ([11]; 125 g ai/ha): 80; Plant response rating, Ragweed ([12]; 31 g ai/ha): 0; Plant response rating, Ragweed ([12]; 125 g ai/ha): 40; Plant response rating, Foxtail, Green ([13]; 31 g ai/ha): 90; Plant response rating, Foxtail, Green ([13]; 125 g ai/ha): 90; Plant response rating, Sedge, Umbrella [14]: 0; Plant response rating, Ducksalad [15]: 90; Plant response rating, Galium ([16]; 31 g ai/ha): 50; Plant response rating, Galium ([16]; 125 g ai/ha): 60; Plant response rating, Barnyardgrass ([17]; 31 g ai/ha): 80; Plant response rating, Barnyardgrass ([17]; 125 g ai/ha): 90; Plant response rating, Barnyardgrass ([18]; 31 g ai/ha): 70; Plant response rating, Barnyardgrass ([18]; 125 g ai/ha): 90
